Data as given in paper PMC10762078, “Role of UPF1-LIN28A interaction during early differentiation of pluripotent stem cells” (Nature Communications, 2024).

Test system: hPSCs
Test: RT-qPCR of pluripotency and germ-layer markers during differentiation with CPP-peptides (Supplementary Fig. 7b-e)
Assay type: cell-based, human
Conditions: for CXCR4 (RT-qPCR) / FOXA1 (RT-qPCR) / GATA4 (RT-qPCR) / SOX17 (RT-qPCR): Fig. s7e; for BMP2 mRNA level (RT-qPCR) / BMP4 mRNA level (RT-qPCR) / CDH2 mRNA level (RT-qPCR) / CXCR4 mRNA level (RT-qPCR) / SNAI1 mRNA level (RT-qPCR) / TBXT mRNA level (RT-qPCR): Fig. s7d
Procedure: For CPP-conjugated peptide delivery, HeLa, 293T, and PA-1 cells were incubated with CPP-conjugated peptides or CPP-FITC at 2 μM in DMEM with 10% FBS for 12 h a day before cell harvest. hPSCs were treated with CPP-conjugated peptides at 10 μM in mTeSR Plus Medium, and the peptide-containing medium was changed every day over 10 days. The ROCK inhibitor (Tocris Bioscience, Y-27632) treated-hPSCs were dissociated into single cells using Accutase (Merck, SCR005) and differentiated into ectoderm, mesoderm, and endoderm using the STEMdiff Trilineage Differentiation Kit ([…] Technologies, 05230) following the manufacturer’s protocol. Differentiated cells treated with CPP-conjugated peptides were analysed at 0, 3, and 5 days for ectoderm and endoderm, and at 0, 3, and 4 days for mesoderm. […]
cDNA was synthesised using RevertAid Reverse Transcriptase (Thermo Fisher Scientific, EP0441) with synthesised random hexamer (Macrogen) for total RNA or stem-loop primers for miRNA. For RT-qPCR reactions, the SensiFAST SYBR No-ROX kit (Meridian Bioscience) was used according to the manufacturer’s protocol. All data analysis and visualisation were conducted using R 3.6.1 [www.r-project.org] or GraphPad Prism 10. RT primers for miRNA and RT-qPCR primer sequences are provided in Supplementary Data 6. […]
FPKM of each gene was presented f r om RNA-seq analysis. b–e hPSCs wer e treated with the indicated peptide during each germ la ye r differentiation. […]
An unpaired Student’s t-test was used for a–e. Data are presented as mean values ± SEM. All statistical test us ed wer e two-s ided. T he m inim um number of independent biological replicate experim ents was a–f n = 3. T he experiments wer e conducted three tim es, each iteration producing consistent results.

## KKKWCRKKKSSADEKRYRALKRTAERELLMNA [CPP-P8, CPP conjugated to P8]
Ectodermal differentiation
  transcripts downregulated in ectodermal differentiation: downregulated the expression of genes closely associated with CNS development (DCX, NEUROD1, NOS2, and PAX3)
  transcripts upregulated in ectodermal differentiation: upregulated the essential transcription factors for retinal gliogenesis and NOTCH signalling (LHX2, NOTCH1, and DLK1)

## N-MPELQKLQQLKDE-C [P2, peptide derived from the UPF1 (419–700) domain]
Day 0, replicate 1
  CXCR4 (RT-qPCR): 1.088
  FOXA1 (RT-qPCR): 1.247
  BMP2 mRNA level (RT-qPCR): 0.8054
  BMP4 mRNA level (RT-qPCR): 1.545
  CDH2 mRNA level (RT-qPCR): 1.016
  CXCR4 mRNA level (RT-qPCR): 0.9995
  SNAI1 mRNA level (RT-qPCR): 1.4406
  TBXT mRNA level (RT-qPCR): 1.3
  GATA4 (RT-qPCR): 0.7242
  SOX17 (RT-qPCR): 1.264
Day 0, replicate 2
  CXCR4 (RT-qPCR): 0.7848
  FOXA1 (RT-qPCR): 1.413
  BMP2 mRNA level (RT-qPCR): 1.199
  BMP4 mRNA level (RT-qPCR): 0.6508
  CDH2 mRNA level (RT-qPCR): 0.7569
  CXCR4 mRNA level (RT-qPCR): 1.121
  SNAI1 mRNA level (RT-qPCR): 0.9418
  TBXT mRNA level (RT-qPCR): 0.8652
  GATA4 (RT-qPCR): 1.3517
  SOX17 (RT-qPCR): 0.8709
Day 0, replicate 3
  CXCR4 (RT-qPCR): 1.127
  FOXA1 (RT-qPCR): 0.3396
  BMP2 mRNA level (RT-qPCR): 0.9954
  BMP4 mRNA level (RT-qPCR): 0.8046
  CDH2 mRNA level (RT-qPCR): 1.227
  CXCR4 mRNA level (RT-qPCR): 0.8798
  SNAI1 mRNA level (RT-qPCR): 0.6176
  TBXT mRNA level (RT-qPCR): 0.8351
  GATA4 (RT-qPCR): 0.9241
  SOX17 (RT-qPCR): 0.8647
Day 3, replicate 1
  CXCR4 (RT-qPCR): 897.043
  FOXA1 (RT-qPCR): 120.605
  BMP2 mRNA level (RT-qPCR): 1.083
  BMP4 mRNA level (RT-qPCR): 30.6184
  CDH2 mRNA level (RT-qPCR): 23.3268
  CXCR4 mRNA level (RT-qPCR): 950.283
  SNAI1 mRNA level (RT-qPCR): 22.3091
  TBXT mRNA level (RT-qPCR): 6339.58
  GATA4 (RT-qPCR): 32.2036
  SOX17 (RT-qPCR): 1792.04
Day 3, replicate 2
  CXCR4 (RT-qPCR): 593.555
  FOXA1 (RT-qPCR): 127.453
  BMP2 mRNA level (RT-qPCR): 0.8465
  BMP4 mRNA level (RT-qPCR): 25.9141
  CDH2 mRNA level (RT-qPCR): 19.1392
  CXCR4 mRNA level (RT-qPCR): 710.257
  SNAI1 mRNA level (RT-qPCR): 18.7714
  TBXT mRNA level (RT-qPCR): 5442.29
  GATA4 (RT-qPCR): 43.7097
  SOX17 (RT-qPCR): 907.999
Day 3, replicate 3
  CXCR4 (RT-qPCR): 261.141
  FOXA1 (RT-qPCR): 128.785
  BMP2 mRNA level (RT-qPCR): 1.108
  BMP4 mRNA level (RT-qPCR): 28.7876
  CDH2 mRNA level (RT-qPCR): 24.2422
  CXCR4 mRNA level (RT-qPCR): 582.163
  SNAI1 mRNA level (RT-qPCR): 15.4609
  TBXT mRNA level (RT-qPCR): 8084.66
  GATA4 (RT-qPCR): 38.0896
  SOX17 (RT-qPCR): 1484.43
Day 5, replicate 1
  CXCR4 (RT-qPCR): 674.407
  FOXA1 (RT-qPCR): 296.789
  GATA4 (RT-qPCR): 51.4498
  SOX17 (RT-qPCR): 1721.02
Day 5, replicate 2
  CXCR4 (RT-qPCR): 690.257
  FOXA1 (RT-qPCR): 436.764
  GATA4 (RT-qPCR): 54.8514
  SOX17 (RT-qPCR): 1190.77
Day 5, replicate 3
  CXCR4 (RT-qPCR): 509.637
  FOXA1 (RT-qPCR): 611.507
  GATA4 (RT-qPCR): 109.794
  SOX17 (RT-qPCR): 1778.6
Day 4, replicate 1
  BMP2 mRNA level (RT-qPCR): 0.2114
  BMP4 mRNA level (RT-qPCR): 7.214
  CDH2 mRNA level (RT-qPCR): 11.5611
  CXCR4 mRNA level (RT-qPCR): 685.489
  SNAI1 mRNA level (RT-qPCR): 15.012
  TBXT mRNA level (RT-qPCR): 2940.28
Day 4, replicate 2
  BMP2 mRNA level (RT-qPCR): 0.2729
  BMP4 mRNA level (RT-qPCR): 9.74
  CDH2 mRNA level (RT-qPCR): 14.1794
  CXCR4 mRNA level (RT-qPCR): 388.959
  SNAI1 mRNA level (RT-qPCR): 19.2435
  TBXT mRNA level (RT-qPCR): 3606.85
Day 4, replicate 3
  BMP2 mRNA level (RT-qPCR): 0.3615
  BMP4 mRNA level (RT-qPCR): 11.782
  CDH2 mRNA level (RT-qPCR): 17.5421
  CXCR4 mRNA level (RT-qPCR): 349.009
  SNAI1 mRNA level (RT-qPCR): 14.5806
  TBXT mRNA level (RT-qPCR): 4470.07
